Counter-ions that a name gives are not always drawn.
Experiments:
[1] = Single oral dose pharmacokinetics study in rats (10 mg/kg PO; plasma levels of prodrug and of metabolite DMT or 5-MeO-DMT by LC-MS/MS); conditions: for Mean Plasma Concentration (ng/mL) of metabolite DMT: analyte DMT after oral dosing of prodrug 10 mg/Kg; for Mean Plasma Concentrations of metabolite DMT: prodrug 10 mg/Kg oral, male SD rats
[2] = Single intravenous dose pharmacokinetics study in rats (1 mg/kg IV; plasma levels of prodrug and of DMT or 5-MeO-DMT by LC-MS/MS); conditions: IV 1 mg/kg, plasma, analyte = dosed compound; for AUC(0-t) / AUC(0-inf) / clearance / MRT / Vd / half-life: male, Sprague-Dawley, rat, iv, 1 mg/kg; for clearance: CL/CL_F (mL/min/kg); for MRT: MRT (h); for Vd: Vdss (L/kg); for half-life: t1/2 (h)
[3] = oral 10 mg/Kg, analyte = dosed prodrug, mean
[4] = oral 10 mg/Kg, analyte = dosed prodrug, median
[5] = male, Sprague-Dawley, rat, plasma, po, 10 mg/kg, AUC0-last (h*ng/mL), oral 10 mg/Kg, analyte = dosed prodrug, mean
[6] = male, Sprague-Dawley, rat, plasma, po, 10 mg/kg, Cmax (ng/mL), oral 10 mg/Kg, analyte = dosed prodrug, mean
[7] = PO 10 mg/kg, plasma, analyte = dosed compound
[8] = male, Sprague-Dawley, rat, plasma, po, 10 mg/kg, C0/Cmax (nM), PO 10 mg/kg, analyte = dosed compound
[9] = male, Sprague-Dawley, rat, plasma, po, 10 mg/kg, C0/Cmax (ng/mL), PO 10 mg/kg, analyte = dosed compound, mean/median
[10] = male, Sprague-Dawley, rat, plasma, po, 10 mg/kg, AUC0-t (nM.hr), PO 10 mg/kg, analyte = dosed compound
[11] = male, Sprague-Dawley, rat, plasma, po, 10 mg/kg, AUC0-t (ng.hr/mL), PO 10 mg/kg, analyte = dosed compound

COc1ccc2c(c1)c(CCN(C)C)cn2C(C)=O [5-MeO-DMT AP-1, 1-[3-[2-(dimethylamino)ethyl]-5-methoxy-indol-1-yl]ethanone]
AUC0-last [1, 3]: 180 ng·h/mL | Cmax [1, 3]: 69 ng/mL | T½ [1, 3]: 74.4 min | Tmax [1, 4]: 30 min | tlast [1, 4]: 7.00 h

COc1ccc2c(c1)c(CCN(C)C)cn2C(=O)OC(C)C [5-MeO-DMT CP-2, isopropyl 3-[2-(dimethylamino)ethyl]-5-methoxy-indole-1-carboxylate]
AUC(0-t) [1, 5]: 6.8 ng·h/mL | Cmax [1, 6]: 5.7 ng/mL | tlast [1, 4]: 2.50 h

COc1ccc2c(c1)c(CCN(C)C)cn2C(=O)OC(C)(C)C [5-MeO-DMT CP-3, tert-butyl 3-[2-(dimethylamino)ethyl]-5-methoxy-indole-1-carboxylate]
AUC(0-t) [1, 5]: 17.3 ng·h/mL | Cmax [1, 6]: 7.51 ng/mL | tlast [1, 4]: 4.00 h

CCCOC(=O)n1cc(CCN(C)C)c2cc(OC)ccc21 [5-MeO-DMT CP-4, propyl 3-[2-(dimethylamino)ethyl]-5-methoxy-indole-1-carboxylate]
AUC(0-t) [1, 5]: 6.45 ng·h/mL | Cmax [1, 6]: 4.85 ng/mL | tlast [1, 4]: 3.00 h

COc1ccc2c(c1)c(CCN(C)C)cn2C(=O)CCC(=O)O [5-MeO-DMT Non-Lipid Prodrug 5, 4-(3-(2-(dimethylamino)ethyl)-5-methoxy-1H-indol-1-yl)-4-oxobutanoic acid]
AUC(0-t) [1, 5]: 85.7 ng·h/mL | Cmax [1, 6]: 23 ng/mL | tlast [1, 4]: 7.00 h

COc1ccc2c(c1)c(CCN(C)C)cn2C(=O)CCCC(=O)O [5-MeO-DMT Non-Lipid Prodrug 6, 5-(3-(2-(dimethylamino)ethyl)-5-methoxy-1H-indol-1-yl)-5-oxopentanoic acid]
AUC(0-t) [1, 5]: 362 ng·h/mL | Cmax [1, 6]: 106 ng/mL | tlast [1, 4]: 7.00 h

COc1ccc2[nH]cc(CCN(C)C)c2c1 [Compound 5-MeO-DMT, 5-methoxy-N,N-dimethyltryptamine, reference compound]
AUC % Back Extrapolation to C0 [2]: 26.8% | AUC % Extrapolation to infinity [2]: 0.204% | Clast [2]: 1.68 ng/mL | tlast [2]: 5.50 h | AUC(0-t) ([2]; AUC0-t (nM.hr)): 4.95 µM·h | AUC(0-t) ([2]; AUC0-t (ng.hr/mL)): 1080 ng·h/mL | AUC(0-inf) ([2]; AUCinf (nM.hr)): 4.95 µM·h | AUC(0-inf) ([2]; AUCinf (ng.hr/mL)): 1080 ng·h/mL | clearance [2]: 24.6 mL/min/kg | MRT [2]: 37.4 min | Vd [2]: 0.818 L/kg | half-life [2]: 30.6 min | Clast [1, 7]: 1.95 ng/mL | tlast [1, 7]: 2.00 h | Cmax [1, 8]: 13.9 nM | Cmax [1, 9]: 3.03 ng/mL

CCOC(=O)n1cc(CCN(C)C)c2cc(OC)ccc21 [Compound 19, Ethyl 3-[2-(dimethylamino)ethyl]-5-methoxy-indole-1-carboxylate]
AUC % Back Extrapolation to C0 [2]: 59.7% | AUC % Extrapolation to infinity [2]: 0.104% | Clast [2]: 2.95 ng/mL | tlast [2]: 5.50 h | AUC(0-t) ([2]; AUC0-t (nM.hr)): 14.4 µM·h | AUC(0-t) ([2]; AUC0-t (ng.hr/mL)): 4170 ng·h/mL | Clast [1, 7]: 1.90 ng/mL | tlast [1, 7]: 24.0 h | AUC(0-t) [1, 10]: 0.237 µM·h | AUC(0-t) [1, 11]: 68.8 ng·h/mL | Cmax [1, 8]: 8.15 nM | Cmax [1, 9]: 2.37 ng/mL

CCOC(=O)n1cc(CCN(C)C)c2ccccc21 [Compound 20, Ethyl 3-[2-(dimethylamino)ethyl]indole-1-carboxylate]
AUC % Back Extrapolation to C0 [2]: 17.5% | AUC % Extrapolation to infinity [2]: 1.073% | Clast [2]: 3.26 ng/mL | tlast [2]: 4.00 h | AUC(0-t) ([2]; AUC0-t (nM.hr)): 1.07 µM·h | AUC(0-t) ([2]; AUC0-t (ng.hr/mL)): 279 ng·h/mL | AUC(0-inf) ([2]; AUCinf (nM.hr)): 1.08 µM·h | AUC(0-inf) ([2]; AUCinf (ng.hr/mL)): 282 ng·h/mL | clearance [2]: 67.9 mL/min/kg | MRT [2]: 48.6 min | Vd [2]: 3.53 L/kg | half-life [2]: 36.8 min | Clast [1, 7]: 3.01 ng/mL | tlast [1, 7]: 1.00 h | AUC(0-t) [1, 10]: 0.0184 µM·h | AUC(0-t) [1, 11]: 4.78 ng·h/mL | Cmax [1, 8]: 44.3 nM | Cmax [1, 9]: 11.5 ng/mL

CN(C)CCc1cn(C(=O)N2CCC(N3CCCCC3)CC2)c2ccccc12 [DMT 4-Piperidinopiperidine urea formate, [1,4′-Bipiperidin]-1′-yl(3-(2-(dimethylamino)ethyl)-1H-indol-1-yl)methanone]
Mean Plasma Concentration (ng/mL) of metabolite DMT ([1]; 0.50 h): BLQ (BLQ: Below Lower Limit of Quantification (0.5 ng/mL)) | Mean Plasma Concentration (ng/mL) of metabolite DMT ([1]; 1.00 h): BLQ (BLQ: Below Lower Limit of Quantification (0.5 ng/mL)) | Mean Plasma Concentration (ng/mL) of metabolite DMT ([1]; 2.00 h): BLQ (BLQ: Below Lower Limit of Quantification (0.5 ng/mL)) | Mean Plasma Concentration (ng/mL) of metabolite DMT ([1]; 4.00 h): BLQ (BLQ: Below Lower Limit of Quantification (0.5 ng/mL)) | Mean Plasma Concentration (ng/mL) of metabolite DMT ([1]; 7.00 h): BLQ (BLQ: Below Lower Limit of Quantification (0.5 ng/mL)) | Mean Plasma Concentration (ng/mL) of metabolite DMT ([1]; 24.0 h): BLQ (BLQ: Below Lower Limit of Quantification (0.5 ng/mL))

CC(=O)n1cc(CCN(C)C)c2ccccc21 [DMT AP-1, 1-[3-[2-(dimethylamino)ethyl]indol-1-yl]ethenone]
AUC(0-t) [1, 5]: 2.16 ng·h/mL | Cmax [1, 6]: 3.53 ng/mL | tlast [1, 4]: 1.00 h

CN(C)CCc1cn(C(=O)c2ccccc2)c2ccccc12 [DMT Benzamide]
AUC(0-t) [1, 5]: 66.5 ng·h/mL | Cmax [1, 6]: 17.7 ng/mL | tlast [1, 4]: 7.00 h

CC(C)OC(=O)n1cc(CCN(C)C)c2ccccc21 [DMT CP-2, isopropyl 3-[2-(dimethylamino)ethyl]indole-1-carboxylate]
AUC(0-t) ([1]; male, Sprague-Dawley, rat, plasma, po, 10 mg/kg, AUC0-24 (h*ng/mL), oral 10 mg/Kg, analyte = dosed prodrug, mean): 60.9 ng·h/mL | AUC(0-t) [1, 5]: 39.4 ng·h/mL | Cmax [1, 6]: 17.4 ng/mL | tlast [1, 4]: 4.00 h

CN(C)CCc1cn(C(=O)OC(C)(C)C)c2ccccc12 [DMT CP-3, tert-butyl 3-[2-(dimethylamino)ethyl]indole-1-carboxylate]
AUC(0-t) [1, 5]: 13.8 ng·h/mL | Cmax [1, 6]: 11.1 ng/mL | tlast [1, 4]: 4.00 h

CCCOC(=O)n1cc(CCN(C)C)c2ccccc21 [DMT CP-4, propyl 3-[2-(dimethylamino)ethyl]indole-1-carboxylate]
AUC(0-t) [1, 5]: 28.2 ng·h/mL | Cmax [1, 6]: 14.3 ng/mL | tlast [1, 4]: 4.50 h

CC(C)COC(=O)n1cc(CCN(C)C)c2ccccc21 [DMT CP-5, isobutyl 3-[2-(dimethylamino)ethyl]indole-1-carboxylate]
AUC(0-t) [1, 5]: 8.63 ng·h/mL | Cmax [1, 6]: 2.92 ng/mL | tlast [1, 4]: 4.00 h

CN(C)CCc1cn(C(=O)N(C)C)c2ccccc12 [DMT N,N-dimethyl urea formate, 3-[2-(dimethylamino)ethyl]-N,N-dimethyl-indole-1-carboxamide]
Mean Plasma Concentrations of metabolite DMT ([1]; time 0.50 h): BLQ (BLQ: Below Lower Limit of Quantification (0.5 ng/mL)) | Mean Plasma Concentrations of metabolite DMT ([1]; time 1.00 h): BLQ (BLQ: Below Lower Limit of Quantification (0.5 ng/mL)) | Mean Plasma Concentrations of metabolite DMT ([1]; time 2.00 h): BLQ (BLQ: Below Lower Limit of Quantification (0.5 ng/mL)) | Mean Plasma Concentrations of metabolite DMT ([1]; time 4.00 h): BLQ (BLQ: Below Lower Limit of Quantification (0.5 ng/mL)) | Mean Plasma Concentrations of metabolite DMT ([1]; time 7.00 h): BLQ (BLQ: Below Lower Limit of Quantification (0.5 ng/mL)) | Mean Plasma Concentrations of metabolite DMT ([1]; time 24.0 h): BLQ (BLQ: Below Lower Limit of Quantification (0.5 ng/mL))

CN(C)CCc1cn(C(=O)CC(C)(C)C(=O)O)c2ccccc12 [DMT-3,3-dimethylsuccinate hydrochloride, 4-(3-(2-(dimethylamino)ethyl)-1H-indol-1-yl)-2,2-dimethyl-4-oxobutanoic acid HCl salt]
Mean Plasma Concentrations of metabolite DMT ([1]; time 0.50 h): BLQ (BLQ: Below Lower Limit of Quantification (0.5 ng/mL)) | Mean Plasma Concentrations of metabolite DMT ([1]; time 1.00 h): BLQ (BLQ: Below Lower Limit of Quantification (0.5 ng/mL)) | Mean Plasma Concentrations of metabolite DMT ([1]; time 2.00 h): BLQ (BLQ: Below Lower Limit of Quantification (0.5 ng/mL)) | Mean Plasma Concentrations of metabolite DMT ([1]; time 4.00 h): BLQ (BLQ: Below Lower Limit of Quantification (0.5 ng/mL)) | Mean Plasma Concentrations of metabolite DMT ([1]; time 7.00 h): BLQ (BLQ: Below Lower Limit of Quantification (0.5 ng/mL)) | Mean Plasma Concentrations of metabolite DMT ([1]; time 24.0 h): BLQ (BLQ: Below Lower Limit of Quantification (0.5 ng/mL))
